Data taken from patent US20040162422A1, “Chemical compounds” (priority 2001, published 2004).

Key:
[1] = molecular target: T1, human adenosine A1 receptors (Homo sapiens, UniProt P30542); assay: Reporter gene experiments in yeast (agonist activity, β-galactosidase/FDG readout); assay type: cell-based; parameters: key: equipotent concentration ratio relative to NECA = 1; conditions: ECR = equipotent concentration ratio relative to NECA = 1; agonist potency, yeast reporter gene assay
T1 construct: expressed in transfected cells
T1 sequence (P30542 1-326): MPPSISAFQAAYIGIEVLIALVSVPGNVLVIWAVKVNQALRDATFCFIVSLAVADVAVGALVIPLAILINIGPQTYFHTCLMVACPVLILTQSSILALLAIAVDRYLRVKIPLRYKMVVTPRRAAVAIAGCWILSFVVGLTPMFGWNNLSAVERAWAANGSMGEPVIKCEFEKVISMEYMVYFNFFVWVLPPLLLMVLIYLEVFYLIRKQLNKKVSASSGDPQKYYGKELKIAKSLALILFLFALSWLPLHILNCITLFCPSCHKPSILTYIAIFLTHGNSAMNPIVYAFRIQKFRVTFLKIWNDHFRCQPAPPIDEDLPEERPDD
Protocol: Reporter Gene Experiments in Yeast
Agonist activity at human adenosine A1 receptors was measured in yeast cell lines expressing the adenosine A1 receptor together with a chimeric G-protein which linked receptor stimulation to the expression of the enzyme β-galactosidase. Cells were plated out in 96-well plates in culture medium to which was added 2 mM 3-AT (3-aminotriazole) to limit basal growth in the absence of agonist stimulation, and FDG (fluorescein di-β-D-galactopyranoside) as substrate for β-galactosidase, which converts FDG to fluorescein. For measurement of potency, agonists were added to the appropriate wells at a concentration range of approximately 10^−10-10^−5M and incubated at 30° C. for 18 hours. At this point the amount of fluorescein generated was measured in a spectrophotometer. From these readings, the concentration-dependence of the stimulation by the agonist can be calculated. One of the agonists tested on each 96-well plate was the standard non-selective agonist, N-ethylcarboxamidoadenosine (NECA), and the potency of all test agonists is expressed relative to that of the NECA standard.
(ECR=equipotent concentration ratio relative to NECA=1)

[2] = molecular target: T2, human adenosine A3 receptors (Homo sapiens, UniProt P0DMS8); assay: Reporter gene experiments in CHO cells (CRE/SPAP, inhibition of forskolin-stimulated SPAP production); assay type: cell-based; conditions: ECR = equipotent concentration ratio relative to NECA = 1; agonist potency, CHO CRE/SPAP reporter gene assay
T2 construct: expressed in transfected cells; host or cells: Chinese hamster ovary (CHO) cells with CRE/SPAP/HYG reporter
T2 sequence (P0DMS8 1-318): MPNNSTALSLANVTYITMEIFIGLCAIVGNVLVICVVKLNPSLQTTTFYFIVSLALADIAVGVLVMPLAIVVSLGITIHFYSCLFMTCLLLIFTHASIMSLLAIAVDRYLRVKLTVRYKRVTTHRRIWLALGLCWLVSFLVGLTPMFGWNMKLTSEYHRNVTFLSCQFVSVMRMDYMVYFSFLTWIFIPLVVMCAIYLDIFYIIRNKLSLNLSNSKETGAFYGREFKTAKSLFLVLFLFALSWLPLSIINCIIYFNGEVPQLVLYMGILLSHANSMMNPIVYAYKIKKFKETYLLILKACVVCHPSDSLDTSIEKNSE
Source text: The compounds useful in the invention are agonists at the adenosine A1 receptor. Preferably they are selective agonists at the adenosine A1 receptor. By selective is meant that the affinity for the A1 receptor is at least 2 times, preferably 5 times and more preferably 10 times greater than the other adenosine receptor subtypes, particularly A3. Agonist selectivity of compounds against other human adenosine receptors can be determined using Chinese hamster ovary (CHO) cells transfected with the gene for the relevant human adenosine receptor following a method based on that of Castanon, K V. and Spevak, W. (1994) Biochem. Biophys. Res. Commun. 198, 626-631. The CHO cells are also transfected with cyclic AMP response elements promoting the gene for secreted placental alkaline phosphatase (SPAP) (Wood, K V. (1995) Cuff. Opinion. Biotechnology, 6, 50-58). The effect of test compounds is determined by their effects on basal levels of cAMP (A2a) or on forskolin-enhanced cAMP (A1 and A3) as reflected by changes in levels of SPAP. EC50 values for compounds are determined as a ratio to that of the non-selective agonist N-ethyl carboxamidoadenosine (NECA). “Adenosine receptors: New opportunities for future drugs” (S. A. Poulsen et al, Bioorg. Med. Chem,. 1998, 6, 619-641) summarises disease conditions that may be treated with adenosine A1 agonists.
Reporter Gene Experiments in CHO cells
Agonist activity at human adenosine A3 receptors was measured in Chinese hamster ovary (CHO) cells containing the CRE/SPAP/HYG (CRE=cyclic AMP response element; HYG=hygromycin resistance; SPAP=secreted placental alkaline phosphatase) reporter gene elements, which upon stimulation of cAMP levels produced SPAP. A cell line was used which was stably transfected with the human adenosine A3 receptor in addition to the above elements. Cells were plated out in 96-well plates in culture medium and incubated at 37° C. for 1 hour. For measurement of potency, agonists were added to the appropriate wells at a concentration range of approximately 10^−10-10^−5M. 15 Min later, cAMP levels were stimulated by addition of a maximal concentration of forskolin. All cells were then incubated for a further 5 hours at 37° C., and cooled to room temperature, after which a substrate for the phosphatase (para-nitrophenol phosphate, pNPP), which is converted by SPAP to a coloured reagent) was then added and the 96-well plates were read in a plate reader. From these readings, the concentration-dependence of the inhibition by the agonist for forskolin-stimulated SPAP production can be calculated. As with the yeast assays, one of the agonists tested on each 96-well plate was the standard non-selective agonist, N-ethylcarboxamidoadenosine (NECA), and the potency of all test agonists is expressed relative to that of the NECA standard.

Compound	Adenosine A1 receptor ECR* [1]	Adenosine A3 receptor ECR* [2]
C#C[C@H]1O[C@@H](n2cnc3c(N[C@@H]4CCC[C@]4(OC)c4ccccc4)ncnc32)[C@H](O)[C@@H]1O (relative stereo) [Example 9, (2R,3R,4S,6R)-5-Ethynyl-2-(6-{[(1R*,2S*)-2-methoxy-2-phenylcyclopentyl]amino}-9H-purin-9-yl)tetrahydrofuran-3,4-diol]	23.81	>165
C#C[C@H]1O[C@@H](n2cnc3c(NCCS(=O)(=O)NCC)ncnc32)[C@H](O)[C@@H]1O [Example 1, N-Ethyl-2-({9-[(2R,3R,4S,5R)-5-ethynyl-3,4-dihydroxytetrahydrofuran-2-yl]-9H-purin-6-yl}amino)ethanesulfonamide]	9.95	>1070
C#C[C@H]1O[C@@H](n2cnc3c(NC4CCN(C(=O)OCC)CC4)ncnc32)[C@H](O)[C@@H]1O [Example 2, Ethyl 4-({9-[(2R,3R,4S,5R)-5-ethynyl-3,4-dihydroxytetrahydrofuran-2-yl]-9H-purin-6-yl}amino)piperidine-1-carboxylate]	10	>3580
C#C[C@H]1O[C@@H](n2cnc3c(N[C@H]4CCC[C@@H]4O)ncnc32)[C@H](O)[C@@H]1O [Example 3, (2R,3R,4S,5R)-5-Ethynyl-2-(6-{[(1S,2S)-2-hydroxycyclopentyl]amino}-9H-purin-9-yl)tetrahydrofuran-3,4-diol]	6.48	>823
C#C[C@H]1O[C@@H](n2cnc3c(NC4Cc5ccccc5C4)ncnc32)[C@H](O)[C@@H]1O [Example 4, (2R,3R,4S,5R)-2-[6-(2,3-Dihydro-1H-inden-2-ylamino)-9H-purin-9-yl]-5-ethynyltetrahydrofuran-3,4-diol]	27.96	>407
C#C[C@H]1O[C@@H](n2cnc3c(NCCc4ccccc4)ncnc32)[C@H](O)[C@@H]1O [Example 6, (2R,3R,4S,5R)-5-ethynyl-2-{6-[(2-phenylethyl)amino]-9H-purin-9-yl}tetrahydrofuran-3,4-diol]	24.6	>1059
C#C[C@H]1O[C@@H](n2cnc3c(NC4CCCCC4)ncnc32)[C@H](O)[C@@H]1O [Example 7, (2R,3R,4S,5R)-2-[6-(Cyclohexylamino)-9H-purin-9-yl]-5-ethynyltetrahydrofuran-3,4-diol]	11.4	>178
C#C[C@H]1O[C@@H](n2cnc3c(N[C@H]4[C@H]5CC[C@H](C5)[C@@H]4C)ncnc32)[C@H](O)[C@@H]1O [Example 8, (2R,3R,4S,5R)-5-Ethynyl-2-(6-{[(1S,2S,3S,4R)-3-methylbicyclo[2.2.1]hept-2-yl]amino}-9H-purin-9-yl)tetrahydrofuran-3,4-diol]	7.94	>178

Next, values leading:

Adenosine A1 receptor ECR* [1]	Adenosine A3 receptor ECR* [2]	Compound
2.88	>416	C#C[C@H]1O[C@@H](n2cnc3c(N[C@H]4C[C@H]5CCC[C@H]54)ncnc32)[C@H](O)[C@@H]1O (relative stereo) [Example 17, (2R,3R,4S,5R)-2-{6-[(1R*,5R*,6S*)-Bicyclo[3.2.0]hept-6-ylamino]-9H-purin-9-yl}-5-ethynyltetrahydrofuran-3,4-diol]
6.89	>1066	C#C[C@H]1O[C@@H](n2cnc3c(NC4CC4)ncnc32)[C@H](O)[C@@H]1O [Example 10, (2R,3R,4S,5R)-2-[6-(Cyclopropylamino)-9H-purin-9-yl]-5-ethynyltetrahydrofuran-3,4-diol]
5	>210	C#C[C@H]1O[C@@H](n2cnc3c(NCC4CC4)ncnc32)[C@H](O)[C@@H]1O [Example 11, (2R,3R,4S,5R)-2-{6-[(Cyclopropylmethyl)amino]-9H-purin-9-yl}-5-ethynyltetrahydrofuran-3,4-diol]
4.47	>80.2	C#C[C@H]1O[C@@H](n2cnc3c(NC4CCCC4)ncnc32)[C@H](O)[C@@H]1O [Example 12]
18.86	>386	C#C[C@H]1O[C@@H](n2cnc3c(N[C@@H]4CCO[C@@H]4C)ncnc32)[C@H](O)[C@@H]1O [Example 13, (2R,3R,4S,5R)-5-Ethynyl-2-(6-{[(2R,3R)-2-methyltetrahydrofuran-3-yl]amino}-9H-purin-9-yl)tetrahydrofuran-3,4-diol]
14.86	>502	C#C[C@H]1O[C@@H](n2cnc3c(N[C@H]4CCO[C@H]4C)ncnc32)[C@H](O)[C@@H]1O [Example 14, (2R,3R,4S,5R)-5-Ethynyl-2-(6-{[(2S,3S)-2-methyltetrahydrofuran-3-yl]amino}-9H-purin-9-yl)tetrahydrofuran-3,4-diol]
6.81	>3208	C#C[C@H]1O[C@@H](n2cnc3c(NC4CC4(C)C)ncnc32)[C@H](O)[C@@H]1O (stereo partly drawn) [Example 18, (2R,3R,4S,5R)-2-{6-[(2,2-Dimethylcyclopropyl)amino]-9H-purin-9-yl}-5-ethynyltetrahydrofuran-3,4-diol]
7.94	>1070	C#C[C@H]1O[C@@H](n2cnc3c(Nc4ccc(F)cc4F)ncnc32)[C@H](O)[C@@H]1O [Example 32, (2R,3R,4S,5R)-2-{6-[(2,4-Difluorophenyl)amino]-9H-purin-9-yl}-5-ethynyltetrahydrofuran-3,4-diol]
26.31	>215	C#C[C@H]1O[C@@H](n2cnc3c(Nc4ccc(Cl)cc4F)ncnc32)[C@H](O)[C@@H]1O [Example 33, (2R,3R,4S,5R)-2-{6-[(4-Chloro-2-fluorophenyl)amino]-9H-purin-9-yl}-5-ethynyltetrahydrofuran-3,4-diol]
6.48	>974	C#C[C@H]1O[C@@H](n2cnc3c(Nc4ccc(F)cc4Cl)ncnc32)[C@H](O)[C@@H]1O [Example 35, (2R,3R,4S,5R)-2-{6-[(2-chloro-4-fluorophenyl)amino]-9H-purin-9-yl}-5-ethynyltetrahydrofuran-3,4-diol]
7.15	>1117	C#C[C@H]1O[C@@H](n2cnc3c(Nc4ccc(F)cc4C)ncnc32)[C@H](O)[C@@H]1O [Example 36, (2R,3R,4S,5R)-5-Ethynyl-2-{6-[(4-fluoro-2-methylphenyl)amino]-9H-purin-9-yl}tetrahydrofuran-3,4-diol]
